The text below walks through data of patent publication US8268817B2, “Substituted oxazole ketone modulators of fatty acid amide hydrolase” (The Scripps Research Institute, priority 2006, dated 2012).

For experiment [1] the following is noted: rats; cited from earlier work.
For a further experiment, the target named is T1, FAAH (Homo sapiens, UniProt O00519).
T1 sequence (O00519 1-579): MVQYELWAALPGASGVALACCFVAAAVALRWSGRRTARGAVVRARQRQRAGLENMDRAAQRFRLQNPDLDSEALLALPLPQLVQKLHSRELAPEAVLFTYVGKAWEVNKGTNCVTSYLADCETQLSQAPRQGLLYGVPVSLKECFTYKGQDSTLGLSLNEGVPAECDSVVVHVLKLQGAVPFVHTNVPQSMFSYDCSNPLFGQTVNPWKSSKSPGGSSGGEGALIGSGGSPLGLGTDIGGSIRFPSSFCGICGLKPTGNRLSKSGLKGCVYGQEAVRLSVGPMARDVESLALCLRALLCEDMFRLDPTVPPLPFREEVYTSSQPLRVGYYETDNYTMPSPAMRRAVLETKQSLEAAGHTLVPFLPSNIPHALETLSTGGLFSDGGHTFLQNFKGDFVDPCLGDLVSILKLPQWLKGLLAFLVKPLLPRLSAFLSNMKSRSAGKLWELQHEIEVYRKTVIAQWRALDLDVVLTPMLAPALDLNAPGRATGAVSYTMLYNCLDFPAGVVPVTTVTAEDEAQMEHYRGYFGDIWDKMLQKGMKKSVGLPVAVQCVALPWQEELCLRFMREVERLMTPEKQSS
The following applies: cited from earlier work.

For experiment [2] the following is noted: rats; cited from earlier work. This is another data set of the same source.
In experiment [3] the target is T2, FAAH (solubilized liver plasma membrane extract) (Rattus norvegicus, UniProt P97612).
T2 construct: using a solubilized liver plasma membrane extract containing FAAH; from tissue; host or cells: liver (plasma membrane extract, solubilized)
T2 sequence (P97612 1-579): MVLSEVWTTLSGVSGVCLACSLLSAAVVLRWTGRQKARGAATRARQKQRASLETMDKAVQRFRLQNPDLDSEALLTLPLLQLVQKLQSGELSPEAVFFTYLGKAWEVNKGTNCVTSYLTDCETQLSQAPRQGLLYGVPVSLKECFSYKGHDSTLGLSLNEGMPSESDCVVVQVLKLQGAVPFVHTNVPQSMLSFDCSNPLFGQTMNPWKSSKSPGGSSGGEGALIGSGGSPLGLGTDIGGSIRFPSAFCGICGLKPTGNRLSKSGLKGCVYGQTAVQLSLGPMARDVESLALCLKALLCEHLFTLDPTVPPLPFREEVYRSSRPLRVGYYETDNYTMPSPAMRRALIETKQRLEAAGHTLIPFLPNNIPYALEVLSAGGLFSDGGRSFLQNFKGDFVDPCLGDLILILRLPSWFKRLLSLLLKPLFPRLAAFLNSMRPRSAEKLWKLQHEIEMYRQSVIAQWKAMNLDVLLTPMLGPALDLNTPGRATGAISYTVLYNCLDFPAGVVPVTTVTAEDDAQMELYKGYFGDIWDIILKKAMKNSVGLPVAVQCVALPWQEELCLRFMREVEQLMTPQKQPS
The experiment can be described thus: FAAH enzyme assay, hydrolysis of 14C-oleamide to oleic acid. It counts as biochemical. As to conditions: 14C-oleamide substrate, pH 9.0, 20-23° C., Dixon method. As for the experimental part: K; values were determined by the Dixon. Method (x-intercepts of weighted linear fits of [I] versus 1/rate plots at constant substrate concentration, which were converted to Ki values using the formula Ki=−xint/[1+[S]/Km]).

For experiment [4] the following is noted: model of multiple sclerosis; cited from earlier work.
The conditions of experiment [5]: rat; cited from earlier work.
For experiment [6] the following is noted: rats; cited from earlier work. The source holds these as a separate data set.
For experiment [7] the following is noted: rats; cited from earlier work. The source holds these as a separate data set.
The conditions of experiment [8]: rats; cited from earlier work. This is another data set of the same source.

Regarding `O=C(CCCCCCc1ccccc1)c1ncc(-c2ccccn2)o1` [OL-135], the “analgesic efficacy in hot plate test” value in [1] was “analgesic activity”. The “inhibition of FAAH” value at FAAH is “potent inhibitor”. Moreover, the “analgesic activity in tail emersion test” value in experiment [2] is “analgesic activity”.

Regarding `CN1CCN(C(=O)c2cnc(C(=O)CCCCCCc3ccccc3)o2)CC1` [Example 7, 1-(5-(4-Methylpiperazine-1-carbonyl)oxazol-2-yl)-7-phenylheptan-1-one], the affinity in experiment [3], expressed as Ki, was 0.08 µM.

On to `CNC(=O)c1cnc(C(=O)CCCCCCc2ccccc2)o1` [Example 8, N-Methyl-2-(7-phenylheptanoyl)oxazole-5-carboxamide], for which the Ki in experiment [3] is 0.007 µM.

`O=C(CCCCCCc1ccccc1)c1ncc(C(=O)N2CCCCC2)o1` [Example 5, 7-Phenyl-1-(5-(piperidine-1-carbonyl)oxazol-2-yl)heptan-1-one] returned a Ki in [3] of 0.008 µM.

On to `CCCCCCCCCCCCCCCCS(=O)(=O)F` [AM374], for which the “effect on spasticity in CREAE mice” value in [4] is reported as “significantly reduce spasticity”.

For the compound `NC(=O)c1cccc(-c2cccc(OC(=O)NC3CCCCC3)c2)c1` [URB-597], the “analgesic efficacy in formalin test” value in [5] was “analgesic efficacy”. In addition, the “analgesic efficacy in hot plate test” value in experiment [1] was “analgesic efficacy”. In [6], the “efficacy in zero plus maze model of anxiety” value is reported as “efficacy”.

`O=C(CCCCCCc1ccccc1)c1ncc(C(=O)N2CCSCC2)o1` [Example 6, 7-Phenyl-1-(5-(thiomorpholine-4-carbonyl)oxazol-2-yl)heptan-1-one] registered a Ki in [3] of 0.01 µM.

`O=C(CCCCCCc1ccccc1)c1ncc(S(=O)(=O)C(F)(F)F)o1` [Example 22, 7-Phenyl-1-(5-(trifluoromethylsulfonyl)oxazol-2-yl)heptan-1-one] showed a Ki in experiment [3] of more than 0.002 µM.

As to `Cc1nc(-c2ccccc2)c(-c2ccccc2)n1CCCCCCNC(=O)Oc1ccccc1F` [BMS-1], the “analgesic effect in Chung spinal nerve ligation model” value in experiment [7] is given as “analgesic effect”. The “analgesic effect in Hargraves test” value in [8] is “analgesic effect”.

`O=C(CCCCCCc1ccccc1)c1ncc(C(=O)N2CCOCC2)o1` [Example 4, 1-(5-(Morpholine-4-carbonyl)oxazol-2-yl)-7-phenylheptan-1-one] gave a Ki in [3] of 0.024 µM.
